Experimental data: US6906061B2, “Pharmaceutical agent containing Rho kinase inhibitor” (Mitsubishi Pharma Corporation, priority 1996, dated 2005)

How the values were obtained:
p160ROCK = target: T1, p160ROCK (Homo sapiens, UniProt Q13464); assay: Inhibition of p160ROCK (myc-tagged, expressed in COS cells); type: biochemical; details: enzyme expressed in COS cells
T1 construct: made in house; host or cells: COS cells (transient transfection, immunoprecipitated with 9E10 anti-myc antibody on protein G-Sepharose)
T1 sequence (Q13464 whole entry): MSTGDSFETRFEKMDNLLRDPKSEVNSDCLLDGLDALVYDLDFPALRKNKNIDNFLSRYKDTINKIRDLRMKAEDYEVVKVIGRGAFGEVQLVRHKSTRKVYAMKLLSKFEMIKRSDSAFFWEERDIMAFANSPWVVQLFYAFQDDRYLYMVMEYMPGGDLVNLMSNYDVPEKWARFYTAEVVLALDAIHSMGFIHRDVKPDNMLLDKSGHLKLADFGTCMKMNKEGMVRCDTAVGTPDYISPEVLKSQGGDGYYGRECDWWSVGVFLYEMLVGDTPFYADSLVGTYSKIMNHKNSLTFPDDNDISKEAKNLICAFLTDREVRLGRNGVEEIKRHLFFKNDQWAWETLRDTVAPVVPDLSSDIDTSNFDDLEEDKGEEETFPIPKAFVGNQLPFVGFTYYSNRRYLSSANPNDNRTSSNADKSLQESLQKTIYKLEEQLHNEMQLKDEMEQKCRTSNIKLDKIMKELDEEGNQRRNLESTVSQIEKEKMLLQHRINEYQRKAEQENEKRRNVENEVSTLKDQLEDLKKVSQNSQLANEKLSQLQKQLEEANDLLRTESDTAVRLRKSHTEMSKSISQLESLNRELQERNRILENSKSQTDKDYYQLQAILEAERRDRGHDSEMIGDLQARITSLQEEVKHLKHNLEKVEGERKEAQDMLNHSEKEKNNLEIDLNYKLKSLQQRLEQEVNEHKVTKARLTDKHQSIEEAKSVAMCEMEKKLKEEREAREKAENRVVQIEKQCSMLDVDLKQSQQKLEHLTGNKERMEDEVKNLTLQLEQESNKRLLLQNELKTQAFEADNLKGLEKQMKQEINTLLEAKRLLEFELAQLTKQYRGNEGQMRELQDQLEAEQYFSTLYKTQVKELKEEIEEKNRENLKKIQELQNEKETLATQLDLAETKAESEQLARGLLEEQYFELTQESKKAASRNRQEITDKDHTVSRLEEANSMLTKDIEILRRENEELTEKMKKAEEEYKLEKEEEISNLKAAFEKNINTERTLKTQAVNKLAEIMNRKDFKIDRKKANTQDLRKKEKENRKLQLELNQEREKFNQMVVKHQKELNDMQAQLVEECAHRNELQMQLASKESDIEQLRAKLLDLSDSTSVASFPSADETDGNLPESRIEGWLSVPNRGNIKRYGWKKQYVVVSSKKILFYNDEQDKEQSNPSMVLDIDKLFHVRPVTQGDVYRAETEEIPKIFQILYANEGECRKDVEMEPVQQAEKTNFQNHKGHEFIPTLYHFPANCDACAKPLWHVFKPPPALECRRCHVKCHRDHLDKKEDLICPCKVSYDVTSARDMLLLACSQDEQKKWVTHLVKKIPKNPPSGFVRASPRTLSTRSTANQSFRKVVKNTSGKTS
Method: (§1) Kinase assay included the following steps. That is, a reaction mixture (total amount 30 μl) containing 50 mM Hepes-NaOH (pH=7.4), 10 mM MgCl2, 5 mM MnCl2, 2 mM dithiothreitol, 0.02% Brij35, 1 μM [γ-^32P]ATP, 330 μg/ml histone, p160ROCK (2 μl) isolated by the method of Ishizaki et al. and the test compound was incubated at 30° C. for 20 minutes. The solution was mixed with a 1/3 amount of 4× Laemmli sample buffer, boiled for 5 minutes and applied to SDS-PAGE. The gel was stained with Coomassie Brilliant Blue and dried. The band of histone was cut out and assayed for radioactivity.
(§2) Rho Kinase Inhibitory Action (Inhibition of p160ROCK and ROCKII)
(§3) COS cells were seeded in a 3.5 cm dish and incubated overnight. […] After incubation for 20 hours, the cells were washed once with ice-cooled PBS, and the cells were lysed on ice for 20 minutes using a lysis buffer (20 mM Tris-HCl (pH=7.5), 1 mM EDTA, 1 mM EGTA, 5 mM MgCl2, 25 mM NaF, 10 mM β glycerophosphate, 5 mM sodium pyrophorphate, 0.2 mM phenylmethylsulfonyl fluoride, 2 mM dithiothreitol, 0.2 mM sodium vanadate, 0.05% Triton X-100, 0.1 μM calyculin A). The lysate was centrifuged at 10,000×g for 10 minutes and the supernatant was recovered. […] Then, protein G-Sepharose was added and the mixture was shaken for 2 more hours. […]

[1] = test system: CEM cells (human T cell type established cell); assay: Inhibition of VLA integrin activation (phorbol ester-induced adhesion of CEM cells to fibronectin); type: cell-based; details: CCRF-CEM, PMA-induced adhesion, read-out: Adhesion induction inhibition (%)
Method: Inhibition of VLA (Very Late Antigen) Integrin Activation
As the index of the activation by VLA integrin, phorbol ester-induced adhesion of CEM cells (human T cell type established cell) to fibronectin, which is a ligand of VIA integrin, was measured. The inhibitory action on the induced adhesion by the test compound was determined by the following method.
CEM cells were washed with RPMI1640 medium containing 0.5% bovine serum albumin (BSA), 10 mM HEPES, 2 mM L-glutamin, 1 mM sodium pyruvate, 60 μg/ml kanamycin sulfate and 1.5 mg/ml sodium hydrogencarbonate (hereinafter this medium is referred to as culture solution) and suspended in this medium for use in the following experiment. To each well of a 96 well plate coated with human fibronectin were added CEM cells (5×10^4) and the test compound dissolved in the culture solution (final concentration 1-100 μM) to the amount of 100 μl, and the plate was stood at 37° C. for 1 hour. Then, PMA (phorbol 12-myristate 13-acetate, TPA; final concentration 10 ng/ml) and the test compound were added to the amount of 200 μl, and the plate was stood at 37° C. for 30 minutes. Each well was washed twice with the culture solution (200 μL) at 37° C., and the LDH (lactate dehydrogenase) activity of the cells adhered to the plate was determined, whereby the amount of the adhered cell was measured. Based on the results obtained by the above-mentioned method, the inhibitory action of the test compound on the induced adhesion was calculated by the following formula The results are shown in Table 6. Inhibition (%) of adhesion induction=(a−b)/(a−c)×100 • a=number of cells adhered with the addition of PMA • b=number of cells adhered with the addition of test compound and PMA • c=number of cells adhered without stimulation

ddY mice = assay: Acute toxicity in ddY mice; type: in vivo; details: intraperitoneal administration at 30 mg/kg, monitored for 5 days
Excerpt: The compound 109.2HCl and compound 143.2HCl.H2O were respectively administered intraperitoneally to ddY mice and the mice were monitored for 5 days.

ROCKII = target: T2, ROCKII (Mus musculus, UniProt P70336); assay: Inhibition of ROCKII (myc-tagged, expressed in COS cells); type: biochemical; details: enzyme expressed in COS cells; read-out: IC50 (μM) ROCK-II
T2 construct: made in house; host or cells: COS cells (transient transfection, immunoprecipitated with 9E10 anti-myc antibody on protein G-Sepharose)
T2 sequence (P70336 whole entry): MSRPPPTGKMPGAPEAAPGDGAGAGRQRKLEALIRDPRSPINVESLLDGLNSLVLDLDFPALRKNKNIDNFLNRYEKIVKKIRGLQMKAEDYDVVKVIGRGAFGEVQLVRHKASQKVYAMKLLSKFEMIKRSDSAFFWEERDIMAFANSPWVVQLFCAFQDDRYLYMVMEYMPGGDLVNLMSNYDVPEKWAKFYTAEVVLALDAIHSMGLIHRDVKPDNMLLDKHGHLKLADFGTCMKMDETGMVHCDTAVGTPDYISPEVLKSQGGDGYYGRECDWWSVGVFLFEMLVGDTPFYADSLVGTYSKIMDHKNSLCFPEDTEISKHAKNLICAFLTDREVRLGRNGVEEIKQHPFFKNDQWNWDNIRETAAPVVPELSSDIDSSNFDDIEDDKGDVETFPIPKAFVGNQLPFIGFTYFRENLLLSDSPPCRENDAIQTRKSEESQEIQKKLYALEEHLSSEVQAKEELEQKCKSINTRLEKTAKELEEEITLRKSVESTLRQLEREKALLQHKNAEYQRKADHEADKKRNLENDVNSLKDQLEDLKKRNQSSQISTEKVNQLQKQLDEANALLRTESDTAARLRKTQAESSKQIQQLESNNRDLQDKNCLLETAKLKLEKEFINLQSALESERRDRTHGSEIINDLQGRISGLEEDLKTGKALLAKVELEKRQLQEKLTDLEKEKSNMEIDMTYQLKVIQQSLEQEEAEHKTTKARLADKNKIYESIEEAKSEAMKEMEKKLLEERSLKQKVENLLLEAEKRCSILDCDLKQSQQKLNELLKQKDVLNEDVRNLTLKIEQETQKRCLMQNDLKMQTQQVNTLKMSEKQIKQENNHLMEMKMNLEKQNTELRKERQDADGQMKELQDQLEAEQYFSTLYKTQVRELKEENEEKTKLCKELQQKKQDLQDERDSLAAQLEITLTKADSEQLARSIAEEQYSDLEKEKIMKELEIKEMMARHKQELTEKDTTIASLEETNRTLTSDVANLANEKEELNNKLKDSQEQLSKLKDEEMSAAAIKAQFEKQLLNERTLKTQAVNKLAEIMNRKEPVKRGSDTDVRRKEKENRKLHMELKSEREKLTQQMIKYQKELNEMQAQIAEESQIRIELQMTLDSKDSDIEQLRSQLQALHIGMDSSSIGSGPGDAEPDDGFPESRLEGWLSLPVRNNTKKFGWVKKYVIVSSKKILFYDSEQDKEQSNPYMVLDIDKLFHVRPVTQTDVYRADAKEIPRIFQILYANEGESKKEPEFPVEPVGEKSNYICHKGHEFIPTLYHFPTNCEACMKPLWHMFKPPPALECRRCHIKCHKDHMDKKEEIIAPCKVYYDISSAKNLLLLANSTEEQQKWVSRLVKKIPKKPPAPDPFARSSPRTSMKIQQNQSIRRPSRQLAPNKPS
Method: as §1, §2, §3

[2] = target: T3, Human Platelet Rho Kinase (p160ROCK) (Homo sapiens, UniProt Q13464); assay: Rho kinase inhibitory action (inhibition of human platelet Rho kinase (p160ROCK)); type: biochemical; details: histone substrate, 1 μM ATP
T3 construct: Human platelet p160ROCK was isolated by the method of Ishizaki et al; from tissue; host or cells: human platelets
T3 sequence (Q13464 whole entry): as the sequence (Q13464 whole entry) above
Method: Rho Kinase Inhibitory Action (Inhibition of Human Platelet Rho Kinase (p160ROCK))
as §1

mouse femoral bone = assay: Inhibition of bone resorption (in vitro), mouse femoral bone; details: 144 h, 6 days incubation of ICR mouse femoral bone
Method: Inhibition of Bone Resorption (in vitro)
The determination of the in vitro inhibition of bone resorption using mouse femoral bone followed the method below.
The femoral bone of 3-6 week old male ICR mice was aseptically removed, and bone marrow cavity was washed with F12 medium, containing 10% heat inactivated fetal bovine serum, penicillin G calcium (100 units/ml), kanamycin sulfate (60 μg) and 0.15% sodium hydrogencarbonate (hereinafter the medium is to be referred to as culture solution). After washing the bone marrow cavity and then removing the soft tissue adhered to the bone, the bone was subjected to incubation. The test compound was once dissolved in dimethyl sulfoxide (DMSO) to give a 10 mg/ml solution, which was diluted 1000-fold with the culture solution to give a 10 μg/ml solution. The test compounds were respectively added to the concentration shown in Table 7 and, using this culture solution (1.2 ml), the ICR mouse femoral bone was incubated in a 24 well plate for 6 days under the conditions of 5% CO2 gas, 95% air. After the completion of the incubation, the culture supernatant was recovered, and the amount of calcium suspending in the culture supernatant was quantitatively determined by the chelate method using o-cresolphthalein. The bone resorption inhibitory action of the test compound was calculated by the following formula using the incubation of the femoral bone without addition of the test compound as a control. [formula] This experiment was done with 4 cases in each group. As the control, the same amount of DMSO alone as in the case with the addition of the test compound was used.

[3] = test system: thoractic aorta ring contracted with phenylephrine; assay: Vasodilating action on phenylephrine-contracted thoracic aorta rings; details: Oryctolagus cuniculus; rabbit aortic ring, phenylephrine 10^−6 M contraction; concentration for 50% relaxation; read-out: Vasorelaxing action
Method: Male rabbits (body weight 1.9-3.0 kg) were anesthetized with pentobarbital sodium and exsanguinated, whereafter thoractic aorta was removed. An about 2 mm width aortic ring samples were prepared and hung in a Magnus bath (40 ml) filled with Krebs-Henseleit solution (37° C., NaCl 117 mM; KCl 4.7 mM; CaCl2 2.5 mM; MgSO4 1.2 mM; NaHCO3 24.8 mM; KH2PO4 1.2 mM; glucose 11.0 mM) at a load of 2 g. The Magnus bath was constantly bubbled with a mixed gas (95% O2+5% CO2 gas). The tension of the preparation was measured with an isomeric transducer (TB-611T, Nippon Koden). The preparation was contracted with phenylephrine (10^−6 M) and, after the contraction was stabilized, the test compound was added accumulatively and relaxing action was observed.

[4] = test system: smooth muscle cell (SMC) from rat aorta; assay: Inhibition of growth of vascular smooth muscle cell; type: cell-based; details: 48 hours, MTT
Method: Inhibition of Growth of Vascular Smooth Muscle Cell
The separation from the artery of rat and culture of smooth muscle cell (SMC) followed the explant method of Ross (Ross, R. and Glomset, J. A., N. Engl. J. Med., 295, 369-420, 1976). Male wistar rats (10 week old) was slaughtered by cutting the carotid arteries and aorta of thorax was removed. After removal of fat tissues around the tunica externa and peeling of tunica intima, the artery was minced and incubated in 10% fetal bovine serum (FBS)-containing DMEM medium at 37° C. under 5% CO2 gas. Seven days later, the out-grown cells were separated by trypsin treatment, washed with phosphate-buffered saline (PBS) and incubated in 10% FBS-containing DMEM medium in a 80 cm^2 culture flask. The cells of subculture 2 were suspended in 10% FBS-containing DMEM medium at 5×10^4 cells/ml and 100 μl thereof per well was added to 96 well collagen-coated plate, which was incubated at 37° C. under 5% CO2 gas for one day. The test compound was appropriately diluted with dimethyl sulfoxide (DMSO) and added to the 96 well plate. The concentration of DMSO in the medium was adjusted to 1%. After 48 hours, 10 μl of MTT solution (5 mg/ml) was added and, 4 hours later, 10% sodium dodecyl sulfate-0.01 N hydrochloric acid (50 μl) was added. The absorbance at 570 nm was measured the following day by an immunoreader. The SMC growth inhibitory action of the test compound was shown by inhibition percentage calculated by the following formula The results are shown in Table 10.

[5] = test system: trachea specimen contracted with acetylcholine; assay: Effect on contraction by acetylcholine of trachea specimen removed from guinea pig; details: Cavia porcellus, acetylcholine 10^−6 M contraction, 50% relaxation vs papaverine 10^−4 M maximum, read-out: Trachea relaxing action
Method: Male Hartley guinea pigs (body weight 260-390 g) were anesthetized by the peritoneal administration of pentobarbital sodium (100 mg/kg) and exsanguinated, whereafter trachea was removed. The anterior cartilage of the trachea was opened and the band was cut in a 3 mm width strip to give a specimen. The specimen was hung in a Magnus bath (40 ml) filled with Krebs-Henseleit solution (NaCl 117 mM; KCl 4.7 mM; CaCl2 2.5 mM; MgSO4 1.2 mM; NaHCO3 24.8 mM; KH2PO4 1.2 mM; glucose 11.0 mM) at a load of 1 g. The Magnus bath was constantly bubbled with a mixed gas (95% O2+5% CO2 gas). The tension of the strip was measured with an isomeric transducer (TB-611T, Nippon Koden) and depicted on a recorder (Ti-102, Tokai Irika).

[6] = test system: Bovine Aorta Thoracia Rho Kinase; assay: Rho kinase inhibitory action (inhibition of bovine aorta thoracia Rho kinase); type: biochemical; details: test compound 10 μM
Method: Rho Kinase Inhibitory Action (Inhibition of Bovine Aorta Thoracia Rho Kinase)
The Rho kinase was prepared from bovine aorta of thorax by partial purification as in the following. The artery was minced and homogenized with a 9-fold amount of 50 mM Tris-hydroxymethylaminomethane (Tris) (pH=7.4), 1 mM dithiothreitol, 1 mM EGTA, 1 mM EDTA, 100 μM p-amidinophenylmethylsulfonyl fluoride, 5 μM E-64, 5 μM leupeptine and 5 μM pepstatin A. The homogenate was centrifuged (10,000×g, 30 minutes) to give supernatant. The supernatant was adsorbed onto a hydroxyapatite column. The column was washed with 0.2M phosphate buffer (pH=6.8). The standard product of Rho kinase was eluted with 0.4M phosphate buffer (pH=6.8). The Rho kinase was assayed as follows.
A reaction mixture (total amount 50 μl) containing 50 mM Tris, 1 mM EDTA, 5 mM MgCl2, 50 μg/ml histone, 10 μM GTPγS, 100 μg/ml Rho, 2 μM [^32P]ATP, the Rho kinase (3 μl) prepared in the above and the test compound was reacted at 30° C. for 5 minutes. The reaction was terminated by the addition of 25% trichloroacetic acid (TCA) solution (1 ml) and the mixture was stood at 4° C. for 30 minutes. Then, the mixture was filtered through a membrane filter (HAWP type, Millipore), and the radioactivity of the filter was counted on a liquid scintillation counter. The inhibitory action of the test compound was calculated from the following formula based on the comparison of the radioactivity with the sample without the test compound (control).

[7] = test system: hind limb skin blood flow; assay: Peripheral blood flow increasing action in STZ-induced diabetic rats; type: in vivo, rat; details: intravenous
Method: Peripheral Blood Flow Increasing Action
Streptozotocin (STZ, 65 mg/kg) was intravenously injected to male SD rats (body weight 200-300 g) to prepare diabetic rats. One month later, STZ-induced diabetic rats were anesthetized with pentobarbital sodium and the blood flow in the hind limb skin was measured with laser blood flowmeter (ALF21R, Advance). The test compound was intravenously administered via catheter dwelled in the carotid arteries, and hind limb skin blood flow increasing action was observed. The blood flow increasing action of the test compound was expressed by increase percentage from the blood flow before administration.

[8] = test system: normal human umberical vascular endothelial cells; assay: Inhibition of angiogenesis (lumen formation in vascular endothelial cells); type: cell-based; details: 18 hours, compared with the control, number rises with inhibition of lumen formation
Method: Inhibition of Angiogenesis
The inhibition of angiogenesis was evaluated by using the inhibition of lumen formation in vascular endothelial cell as an index. To be specific, normal human umberical vascular endothelial cells (KURABO […] LTD.) were suspended in E-GMUV medium at 5.5×10^4 cells/ml and 400 μl therefrom was added on matrigel plate (EHS sarcoma-derived reconstructed basement membrane, Collaborative Biomedical Products). Then, the test compound (1 mM solution, 4 μl) was added and the cells were incubated at 37° C. under 5% CO2 gas for 18 hours. After the completion of the incubation, the number of lumen per predetermined area was counted under a microscope. Inasmuch as the number of lumen increases by the inhibition of lumen formation, the test compound was evaluated by comparison of the number of lumen with the control.

SMILES | IC50 (p160ROCK) | inhibition at 100 µM ([1]; concentration 100 μM) | Acute toxicity (death) (ddY mice) | IC50 (ROCKII) | IC50 [2] | inhibition at 100 µM (mouse femoral bone) | IC50 [3] | inhibition at 10 µM ([1]; concentration 10 μM) | IC50 [4] | IC50 [5] | Inhibition (%) [6] | Increase in skin blood flow ± standard error (%) ([7]; 0.03 μg) | Increase in skin blood flow ± standard error (%) ([7]; 0.1 μg) | Number of lumen (10 μM) [8]
N=C(N)NC[C@H]1CC[C@H](C(=O)Nc2ccnc3[nH]ncc23)CC1 [Compound 143.2HCl.H2O, trans-N-(1H-pyrazolo[3,4-b]pyridin-4-yl)-4-guanidinomethylcyclohexanecarboxamide] | 0.88 µM | 77% | did not cause death | 0.47 µM | 1600 nM | 39.4% | – | – | – | – | – | – | – | –
C[C@@H](N)c1ccc(C(=O)Nc2ccnc3[nH]ccc23)cc1 [Compound 165.2HCl.3/2H2O, (R)-(+)-N-(1H-pyrrolo[2,3-b]pyridin-4-yl)-4-(1-aminoethyl)benzamide] | – | – | – | – | – | – | 51 nM | 40% | 38000 nM | 66 nM | 100% | 135.8 ± 0.0% | 144.7 ± 0.0% | 222%
